Results reported in ChEMBL document CHEMBL5143536, “Dihydroartemisinin improves hypercholesterolemia in ovariectomized mice via enhancing vectorial transport of cholesterol and bile acids from blood to bile” (Bioorg Med Chem, 2022).
Calls of active or inactive are those of the source.

Assays:
Format in all cases: functional, organism-based
Mus musculus [1] = assay: Hypocholesterolemic activity in OVX-induced C57BL/6 mouse model assessed as increase in Cyp7b1 mRNA expression in liver in liver at 150 mg/kg, ig for 4 weeks by qRT-PCR analysis
Mus musculus [2] = assay: Hypocholesterolemic activity in OVX-induced C57BL/6 mouse model assessed as increase in Slc10a1 mRNA expression in liver in liver at 150 mg/kg, ig for 4 weeks by qRT-PCR analysis
Mus musculus [3] = assay: Hypocholesterolemic activity in OVX-induced C57BL/6 mouse model assessed as increase in Elovl5 mRNA expression in liver at 150 mg/kg, ig for 4 weeks by qRT-PCR analysis
Mus musculus [4] = assay: Hypocholesterolemic activity in OVX-induced C57BL/6 mouse model assessed as decrease in Fabp6 mRNA expression in Ileum […] at 150 mg/kg, ig for 4 weeks by qRT-PCR analysis
Mus musculus [5] = assay: Hypocholesterolemic activity in OVX-induced C57BL/6 mouse model assessed as increase in Scd1 mRNA expression in liver at 150 mg/kg, ig for 4 weeks by qRT-PCR analysis
Mus musculus [6] = assay: Hypocholesterolemic activity in OVX-induced C57BL/6 mouse model assessed as increase in Abcb1a mRNA expression in liver in liver at 150 mg/kg, ig for 4 weeks by qRT-PCR analysis
Mus musculus [7] = assay: Hypocholesterolemic activity in OVX-induced C57BL/6 mouse model assessed as decrease in TC concentration in serum at 150 mg/kg, ig for 4 weeks
Mus musculus [8] = assay: Hypocholesterolemic activity in OVX-induced C57BL/6 mouse model assessed as decrease in number of lipid droplet concentration in liver at 150 mg/kg, ig for 4 weeks by H and E staining based assay
Mus musculus [9] = assay: Hypocholesterolemic activity in OVX-induced C57BL/6 mouse model assessed as increase in Abcb4 mRNA expression in liver in liver at 150 mg/kg, ig for 4 weeks by qRT-PCR analysis
Mus musculus [10] = assay: Hypocholesterolemic activity in OVX-induced C57BL/6 mouse model assessed as increase in Fasn protein expression in liver at 150 mg/kg, ig for 4 weeks by western blot analysis
Mus musculus [11] = assay: Hypocholesterolemic activity in OVX-induced C57BL/6 mouse model assessed as decrease in LDL-C concentration in serum at 150 mg/kg, ig for 4 weeks
Mus musculus [12] = assay: Hypocholesterolemic activity in OVX-induced C57BL/6 mouse model assessed as decrease in Slc10a2 mRNA expression in Ileum at 150 mg/kg, ig for 4 weeks by qRT-PCR analysis
Mus musculus [13] = assay: Hypocholesterolemic activity in OVX-induced C57BL/6 mouse model assessed as decrease in size of lipid droplet concentration in […] at 150 mg/kg, ig for 4 weeks by H and E staining based assay; details: Liver
Mus musculus [14] = assay: Hypocholesterolemic activity in OVX-induced C57BL/6 mouse model assessed as increase in Elovl6 mRNA expression in liver at 150 mg/kg, ig for 4 weeks by qRT-PCR analysis
Mus musculus [15] = assay: Hypocholesterolemic activity in OVX-induced C57BL/6 mouse model assessed as increase in Abcg8 protein expression in liver in liver at 150 mg/kg, ig for 4 weeks by western blot analysis
Mus musculus [16] = assay: Hypocholesterolemic activity in OVX-induced C57BL/6 mouse model assessed as increase in Abcg5 protein expression in liver in liver at 150 mg/kg, ig for 4 weeks by western blot analysis
Mus musculus [17] = assay: Hypocholesterolemic activity in OVX-induced C57BL/6 mouse model assessed as increase in HDL-C concentration in serum at 150 mg/kg, ig for 4 weeks
Mus musculus [18] = assay: Hypocholesterolemic activity in OVX-induced C57BL/6 mouse model assessed as increase in CD36 mRNA expression in liver at 150 mg/kg, ig for 4 weeks by qRT-PCR analysis
Mus musculus [19] = assay: Hypocholesterolemic activity in OVX-induced C57BL/6 mouse model assessed as increase in SCD1 protein expression in liver at 150 mg/kg, ig for 4 weeks by western blot analysis
Mus musculus [20] = assay: Hypocholesterolemic activity in OVX-induced C57BL/6 mouse model assessed as increase in Abcg5 mRNA expression in liver in liver at 150 mg/kg, ig for 4 weeks by qRT-PCR analysis
Mus musculus [21] = assay: Hypocholesterolemic activity in OVX-induced C57BL/6 mouse model assessed as increase in CD36 protein expression in liver at 150 mg/kg, ig for 4 weeks by western blot analysis
Mus musculus [22] = assay: Hypocholesterolemic activity in OVX-induced C57BL/6 mouse model assessed as increase in Fasn mRNA expression in liver at 150 mg/kg, ig for 4 weeks by qRT-PCR analysis
Mus musculus [23] = assay: Hypocholesterolemic activity in OVX-induced C57BL/6 mouse model assessed as increase in Abcg8 mRNA expression in liver in liver at 150 mg/kg, ig for 4 weeks by qRT-PCR analysis
Mus musculus [24] = assay: Hypocholesterolemic activity in OVX-induced C57BL/6 mouse model assessed as increase in ACACa protein expression in liver at 150 mg/kg, ig for 4 weeks by western blot analysis
Mus musculus [25] = assay: Hypocholesterolemic activity in OVX-induced C57BL/6 mouse model assessed as increase in Slcob2 mRNA expression in liver in liver at 150 mg/kg, ig for 4 weeks by qRT-PCR analysis

Measured: Activity

C[C@H]1[C@@H](O)O[C@@H]2O[C@@]3(C)CC[C@H]4[C@H](C)CC[C@@H]1[C@@]24OO3
active: all assays above
